Laboratory results taken from ChEMBL document CHEMBL4330150, “Synthesis and biological evaluation of pyrazole linked benzothiazole-β-naphthol derivatives as topoisomerase I inhibitors with DNA binding ability” (Bioorg Med Chem, 2019).
Calls of active or inactive are those of the source. The rule behind the calls is not given here.

How the values were obtained:
[1] = tested on: MCF7; assay: Antiproliferative activity against human MCF7 cells after 48 hrs by MTT assay; assay type: functional, cell-based; conditions: MCF7, 48 h
[2] = tested on: A549; assay: Antiproliferative activity against human A549 cells after 48 hrs by MTT assay; assay type: functional, cell-based; conditions: A549, 48 h
[3] = tested on: HeLa; assay: Antiproliferative activity against human HeLa cells after 48 hrs by MTT assay; assay type: functional, cell-based
[4] = tested on: Calf thymus DNA; assay: Binding affinity to calf thymus DNA assessed as hypochromicity shift in positive band at DNA to compound ratio of 1:2 by CD spectral analysis; assay type: nucleic-acid assay; conditions: Bos taurus
[5] = tested on: Calf thymus DNA; assay: Binding affinity to calf thymus DNA assessed as hypochromicity at 10 uM by UV-Visible spectrophotometric method; assay type: nucleic-acid assay; conditions: Bos taurus
[6] = tested on: HeLa; assay: Cell cycle arrest in human HeLa cells assessed as accumulation at G2/M phase at 2.5 uM after 48 hrs by propidium iodide staining based FACS analysis (reference value: 13.9%); assay type: functional
[7] = tested on: HeLa; assay: Cell cycle arrest in human HeLa cells assessed as accumulation at G2/M phase at 5 uM after 48 hrs by propidium iodide staining based FACS analysis (reference value: 13.9%); assay type: functional
[8] = tested on: HeLa; assay: Cell cycle arrest in human HeLa cells assessed as accumulation at S phase at 2.5 uM after 48 hrs by propidium iodide staining based FACS analysis (reference value: 5.58%); assay type: functional
[9] = tested on: HEK293; assay: Antiproliferative activity against HEK293 cells after 48 hrs by MTT assay; assay type: cell-based; conditions: Homo sapiens, HEK293, 48 h
[10] = tested on: Calf thymus DNA; assay: Binding affinity to calf thymus DNA assessed as hypochromicity shift in negative band at DNA to compound ratio of 1:1 to 1:2 by CD spectral analysis; assay type: nucleic-acid assay; conditions: Bos taurus
[11] = tested on: Calf thymus DNA; assay: Binding affinity to calf thymus DNA assessed as DNA intercalation by measuring increase in viscosity at 15 uM by Ostwald viscometric method; assay type: nucleic-acid assay; conditions: Bos taurus
[12] = target: T1, DNA topoisomerase 1 (Homo sapiens) (UniProt P11387); assay: Inhibition of topoisomerase-1 (unknown origin) at 100 uM using pBR322 DNA as substrate after 30 mins by agarose gel electrophoresis method
T1 sequence (whole entry): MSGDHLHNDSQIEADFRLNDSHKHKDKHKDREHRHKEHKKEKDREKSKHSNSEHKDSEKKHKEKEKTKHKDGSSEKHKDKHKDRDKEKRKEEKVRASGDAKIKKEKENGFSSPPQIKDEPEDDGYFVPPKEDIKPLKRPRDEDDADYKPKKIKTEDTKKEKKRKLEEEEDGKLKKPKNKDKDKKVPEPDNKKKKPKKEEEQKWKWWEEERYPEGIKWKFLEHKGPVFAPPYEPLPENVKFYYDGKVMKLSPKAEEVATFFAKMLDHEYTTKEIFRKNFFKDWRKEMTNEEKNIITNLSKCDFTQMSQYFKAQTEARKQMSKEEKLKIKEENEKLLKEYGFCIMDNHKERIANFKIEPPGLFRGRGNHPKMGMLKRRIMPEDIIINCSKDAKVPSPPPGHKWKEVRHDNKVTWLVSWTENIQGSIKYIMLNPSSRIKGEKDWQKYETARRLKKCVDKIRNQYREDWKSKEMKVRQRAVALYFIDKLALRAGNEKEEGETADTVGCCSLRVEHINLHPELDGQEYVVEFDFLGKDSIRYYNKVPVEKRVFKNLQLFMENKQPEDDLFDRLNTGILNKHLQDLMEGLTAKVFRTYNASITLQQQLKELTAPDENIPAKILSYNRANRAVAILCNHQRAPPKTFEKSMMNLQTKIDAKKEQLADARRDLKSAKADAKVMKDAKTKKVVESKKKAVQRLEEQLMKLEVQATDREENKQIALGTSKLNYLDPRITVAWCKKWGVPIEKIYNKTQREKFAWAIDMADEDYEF

[13] = tested on: Calf thymus DNA; assay: Binding affinity to calf thymus DNA assessed as hypochromicity shift at 10 uM by fluorescence spectral analysis; assay type: nucleic-acid assay; conditions: Bos taurus
[14] = tested on: HeLa; assay: Cell cycle arrest in human HeLa cells assessed as accumulation at sub-G1 phase at 2.5 uM after 48 hrs by propidium iodide staining based FACS analysis (reference value: 1.69%); assay type: functional
[15] = tested on: Calf thymus DNA; assay: Binding affinity to calf thymus DNA assessed as hypochromicity shift in positive band at DNA to compound ratio of 1:1 by CD spectral analysis; assay type: nucleic-acid assay; conditions: Bos taurus
[16] = tested on: HeLa; assay: Cell cycle arrest in human HeLa cells assessed as accumulation at G1 phase at 5 uM after 48 hrs by propidium iodide staining based FACS analysis (reference value: 73.5%); assay type: functional
[17] = tested on: HeLa; assay: Cell cycle arrest in human HeLa cells assessed as accumulation at G1 phase at 2.5 uM after 48 hrs by propidium iodide staining based FACS analysis (reference value: 73.5%); assay type: functional
[18] = tested on: HeLa; assay: Cell cycle arrest in human HeLa cells assessed as accumulation at S phase at 5 uM after 48 hrs by propidium iodide staining based FACS analysis (reference value: 5.58%); assay type: functional
[19] = tested on: HeLa; assay: Cell cycle arrest in human HeLa cells assessed as accumulation at sub-G1 phase at 5 uM after 48 hrs by propidium iodide staining based FACS analysis (reference value: 1.69%); assay type: functional
[20] = tested on: Calf thymus DNA; assay: Binding affinity to calf thymus DNA assessed as DNA intercalation by measuring increase in viscosity at 5 uM by Ostwald viscometric method; assay type: nucleic-acid assay; conditions: Bos taurus

| Structure (SMILES) | IC50 [1] | IC50 [2] | IC50 [3] | also measured |
| --- | --- | --- | --- | --- |
| O=[N+]([O-])c1cccc(-c2nn(-c3ccccc3)cc2C(Nc2nc3ccccc3s2)c2c(O)ccc3ccccc23)c1 (centres undefined) | 43.9 µM | 32 µM | 8.22 µM |  |
| Cc1ccc2nc(NC(c3cn(-c4ccccc4)nc3-c3ccc([N+](=O)[O-])cc3)c3c(O)ccc4ccccc34)sc2c1 (centres undefined) | 20.7 µM | 29 µM | 7.04 µM |  |
| CN1CCN(c2ccc3nc(-c4ccc5nc(-c6ccc(O)cc6)[nH]c5c4)[nH]c3c2)CC1 | 48.1 µM |  | 23.5 µM |  |
| O=[N+]([O-])c1ccc(-c2nn(-c3ccccc3)cc2C(Nc2nc3ccc(Cl)cc3s2)c2c(O)ccc3ccccc23)cc1 (centres undefined) | 38.6 µM | 57.2 µM | 13.4 µM |  |
| Cc1cccc(-c2nn(-c3ccccc3)cc2C(Nc2nc3ccccc3s2)c2c(O)ccc3ccccc23)c1 (centres undefined) | 17.3 µM | 18.5 µM | 7.02 µM |  |
| O=[N+]([O-])c1ccc(-c2nn(-c3ccccc3)cc2C(Nc2nc3ccccc3s2)c2c(O)ccc3ccccc23)cc1 (centres undefined) | 14.7 µM | 41.2 µM | 6.81 µM |  |
| COc1cccc(-c2nn(-c3ccccc3)cc2C(Nc2nc3ccc(Cl)cc3s2)c2c(O)ccc3ccccc23)c1 (centres undefined) | 36 µM | 49.8 µM | 30 µM |  |
| COc1ccc2nc(NC(c3cn(-c4ccccc4)nc3-c3ccccc3)c3c(O)ccc4ccccc34)sc2c1 (centres undefined) | 40.8 µM | 44.6 µM | 8.29 µM |  |
| COc1ccc2nc(NC(c3cn(-c4ccccc4)nc3-c3ccc(F)cc3)c3c(O)ccc4ccccc34)sc2c1 (centres undefined) | 16.9 µM | 33.6 µM | 4.63 µM | Activity [4]: Active; Activity [5]: Active; Activity [6]: 25.3%; Activity [7]: 28.2%; Activity [8]: 11.5%; IC50 [9]: 58.1 µM; Activity [10]: Active; Activity [11]: inactive; inhibition [12]: Active; Activity [13]: 507 nm; Activity [14]: 2.79%; Activity [15]: Active; Activity [16]: 60%; Activity [17]: 57.5%; Activity [18]: 5.08%; Activity [19]: 3.09% |
| Cc1ccc(-c2nn(-c3ccccc3)cc2C(Nc2nc3ccccc3s2)c2c(O)ccc3ccccc23)cc1 (centres undefined) | 13.1 µM | 57.4 µM | 8.05 µM |  |
| Oc1ccc2ccccc2c1C(Nc1nc2ccccc2s1)c1cn(-c2ccccc2)nc1-c1cccc(Cl)c1 (centres undefined) | 20.7 µM | 20.4 µM | 6.83 µM |  |
| COc1ccc(-c2nn(-c3ccccc3)cc2C(Nc2nc3ccccc3s2)c2c(O)ccc3ccccc23)cc1 (centres undefined) | 17.5 µM | 26.2 µM | 9.34 µM |  |
| COc1ccc2nc(NC(c3cn(-c4ccccc4)nc3-c3ccc([N+](=O)[O-])cc3)c3c(O)ccc4ccccc34)sc2c1 (centres undefined) | 13.3 µM | 22.5 µM | 5.54 µM | Activity [4]: Active; Activity [5]: Active; IC50 [9]: 46.5 µM; Activity [10]: Active; Activity [11]: inactive; inhibition [12]: Active; Activity [13]: 337 nm; Activity [15]: Active |
| CN1CCN(c2ccc3[nH]c(-c4ccc5[nH]c(-c6ccc(O)cc6)nc5c4)nc3c2)CC1 |  |  |  | Activity [20]: inactive |
| COc1cccc(-c2nn(-c3ccccc3)cc2C(Nc2nc3ccccc3s2)c2c(O)ccc3ccccc23)c1 (centres undefined) | 16.9 µM | 24.8 µM | 14.9 µM |  |
| CC[n+]1c(-c2ccccc2)c2cc(N)ccc2c2ccc(N)cc21 |  |  |  | Activity [20]: Active |
| O=[N+]([O-])c1cccc(-c2nn(-c3ccccc3)cc2C(Nc2nc3ccc(Cl)cc3s2)c2c(O)ccc3ccccc23)c1 (centres undefined) | 19.7 µM | 42.5 µM | 15.5 µM |  |

| Structure (SMILES) | IC50 [1] | IC50 [2] | IC50 [3] | also measured |
| --- | --- | --- | --- | --- |
| Cc1ccc2nc(NC(c3cn(-c4ccccc4)nc3-c3cccc([N+](=O)[O-])c3)c3c(O)ccc4ccccc34)sc2c1 (centres undefined) | 38.4 µM | 57.4 µM | 7.36 µM |  |
| COc1cccc(-c2nn(-c3ccccc3)cc2C(Nc2nc3ccc(OC)cc3s2)c2c(O)ccc3ccccc23)c1 (centres undefined) | 62.6 µM | 88.1 µM | 10.5 µM |  |
| Oc1ccc2ccccc2c1C(Nc1nc2ccccc2s1)c1cn(-c2ccccc2)nc1-c1ccccc1 (centres undefined) | 48.9 µM | 36.2 µM | 17.3 µM |  |
| Cc1ccc2nc(NC(c3cn(-c4ccccc4)nc3-c3cccc(Cl)c3)c3c(O)ccc4ccccc34)sc2c1 (centres undefined) | 49.7 µM | 45.4 µM | 9.43 µM |  |
| Oc1ccc2ccccc2c1C(Nc1nc2ccc(Cl)cc2s1)c1cn(-c2ccccc2)nc1-c1ccc(I)cc1 (centres undefined) | 65 µM | 29 µM | 12.1 µM |  |
| Cc1cc2nc(NC(c3cn(-c4ccccc4)nc3-c3ccc([N+](=O)[O-])cc3)c3c(O)ccc4ccccc34)sc2cc1C (centres undefined) | 41.1 µM | 41.9 µM | 14.7 µM |  |
| Oc1ccc2ccccc2c1C(Nc1nc2ccc(Cl)cc2s1)c1cn(-c2ccccc2)nc1-c1ccccc1 (centres undefined) | 36.3 µM | 51.1 µM | 12.5 µM |  |
| COc1ccc2nc(NC(c3cn(-c4ccccc4)nc3-c3cccc(I)c3)c3c(O)ccc4ccccc34)sc2c1 (centres undefined) | 20 µM | 39.3 µM | 6.24 µM |  |
| Oc1ccc2ccccc2c1C(Nc1nc2ccc(Cl)cc2s1)c1cn(-c2ccccc2)nc1-c1ccc(F)cc1 (centres undefined) | 21.6 µM | 32.1 µM | 30.1 µM |  |
| COc1ccc2nc(NC(c3cn(-c4ccccc4)nc3-c3cccc([N+](=O)[O-])c3)c3c(O)ccc4ccccc34)sc2c1 (centres undefined) | 26.8 µM | 52.1 µM | 6.14 µM |  |
| Oc1ccc2ccccc2c1C(Nc1nc2ccc(Cl)cc2s1)c1cn(-c2ccccc2)nc1-c1cccc(Cl)c1 (centres undefined) | 17.5 µM | 33.3 µM | 18.3 µM |  |
| Oc1ccc2ccccc2c1C(Nc1nc2ccccc2s1)c1cn(-c2ccccc2)nc1-c1ccc(I)cc1 (centres undefined) | 18.9 µM | 23.1 µM | 6.59 µM |  |
| Oc1ccc2ccccc2c1C(Nc1nc2ccc(Cl)cc2s1)c1cn(-c2ccccc2)nc1-c1ccc(Cl)cc1 (centres undefined) | 27.5 µM | 54.1 µM | 36.8 µM |  |
| Cc1ccc(-c2nn(-c3ccccc3)cc2C(Nc2nc3cc(C)c(C)cc3s2)c2c(O)ccc3ccccc23)cc1 (centres undefined) | 22.4 µM | 31.2 µM | 17.8 µM |  |
| COc1ccc2nc(NC(c3cn(-c4ccccc4)nc3-c3ccc(Cl)cc3)c3c(O)ccc4ccccc34)sc2c1 (centres undefined) | 23.7 µM | 34.5 µM | 5.2 µM | Activity [4]: Active; Activity [5]: Active; Activity [6]: 19.9%; Activity [7]: 20%; Activity [8]: 8.89%; IC50 [9]: 56 µM; Activity [10]: Active; Activity [11]: inactive; inhibition [12]: Active; Activity [13]: 507 nm; Activity [14]: 2.33%; Activity [15]: Active; Activity [16]: 66.5%; Activity [17]: 66.2%; Activity [18]: 9.03%; Activity [19]: 2.03% |
| COc1ccc(-c2nn(-c3ccccc3)cc2C(Nc2nc3ccc(OC)cc3s2)c2c(O)ccc3ccccc23)cc1 (centres undefined) | 41.8 µM | 28.1 µM | 9.24 µM |  |
